Measurements as given in ChEMBL document CHEMBL5360569, “Inhibition of the pyroptosis-associated inflammasome pathway: The important potential mechanism of ginsenosides in ameliorating diabetes and its complications” (Eur J Med Chem, 2023).

Assay: Cmax in po dosed human plasma
Assay type: ADME, organism-based
Parameters: route po

Structure (SMILES) | Cmax [ng/mL]
CC(C)=CCC[C@](C)(O[C@H]1O[C@H](CO)[C@@H](O)[C@H](O)[C@H]1O)[C@H]1CC[C@]2(C)[C@@H]1[C@H](O)C[C@@H]1[C@@]3(C)CC[C@H](O)C(C)(C)[C@@H]3CC[C@]12C | 8.35
CC(C)=CCC[C@](C)(O[C@@H]1O[C@H](CO[C@@H]2O[C@H](CO)[C@@H](O)[C@H](O)[C@H]2O)[C@@H](O)[C@H](O)[C@H]1O)[C@H]1CC[C@]2(C)[C@@H]1[C@H](O)C[C@@H]1[C@@]3(C)CC[C@H](O[C@@H]4O[C@H](CO)[C@@H](O)[C@H](O)[C@H]4O[C@@H]4O[C@H](CO)[C@@H](O)[C@H](O)[C@H]4O)C(C)(C)[C@@H]3CC[C@]12C [GINSENOSIDE RB1] | 3.94
